Assay results from paper PMC6546350 (RNA Biology, 2019).

Biological target: T1, RlmJ (Escherichia coli, UniProt P37634)
T1 sequence (P37634 1-280): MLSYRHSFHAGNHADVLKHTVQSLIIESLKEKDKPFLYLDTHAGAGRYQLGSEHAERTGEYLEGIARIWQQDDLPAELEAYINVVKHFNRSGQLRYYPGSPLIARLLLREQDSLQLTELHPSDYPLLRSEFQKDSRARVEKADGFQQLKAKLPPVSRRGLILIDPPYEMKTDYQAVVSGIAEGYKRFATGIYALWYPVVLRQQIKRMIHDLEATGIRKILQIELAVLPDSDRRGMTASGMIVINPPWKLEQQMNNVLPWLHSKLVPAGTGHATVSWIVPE
Assay: ITC and DSF
Assay type: binding

Question: How did the Kd turn out when Nc1ncnc2c1ncn2[C@@H]1O[C@H](C[C@@H](N)CC[C@H](N)C(=O)O)[C@@H](O)[C@H]1O [sinefungin] was run?
Answer: The Kd was 1700 ± 200 nM.
